According to EP1953147A1, “HETEROCYCLIC COMPOUND AND MEDICINAL APPLICATION THEREOF” (priority 2005, dated 2007):

These molecules were tested on ΔG/SEAP/HCV E1E2 (assay: Effect of test substance on cell infection with HCV pseudotype virus (SEAP reporter assay in HepG2 cells)). Conditions: Hepatitis C virus.
Format: cell-based
`COc1cccc(-c2nn(-c3cc(N4CC[C@H](O)C4)ccc3C(F)(F)F)c(=O)c3c2CCC3)c1` [Example 58, 2-[5-((S)-3-hydroxy-pyrrolidin-1-yl)-2-trifluoromethyl-phenyl]-4-(3-methoxy-phenyl)-2,5,6,7-tetrahydro-cyclopenta[d]pyridazin-1-one] was tested, and the IC50 was less than 100 nM. Molecule `COc1cc(C)cc(-c2nn(-c3cc(-c4cccnn4)ccc3C(F)(F)F)c(=O)c3c2CCC3)c1` [Example 1-4, 4-(3-methoxy-5-methyl-phenyl)-2-[5-(pyridazin-3-yl)-2-trifluoromethyl-phenyl]-2,5,6,7-tetrahydro-cyclopenta[d]pyridazin-1-one] has an IC50 of less than 100 nM. `O=c1c2c(c(-c3ccccc3F)nn1-c1cc(N3CC[C@H](O)C3)ccc1C(F)(F)F)CCC2` [Example 105, 4-(2-fluoro-phenyl)-2-[5-((S)-3-hydroxy-pyrrolidin-1-yl)-2-trifluoromethyl-phenyl]-2,5,6,7-tetrahydro-cyclopenta[d]pyridazin-1-one] gave an IC50 of 100 to 10000 nM. `COc1cc(OC)cc(-c2nn(-c3cc(NCC4CC4)ccc3C(F)(F)F)c(=O)c3c2CCC3)c1` [Example 141, 2-[5-(cyclopropylmethyl-amino)-2-trifluoromethylphenyl]-4-(3,5-dimethoxy-phenyl)-2,5,6,7-tetrahydro-cyclopenta[d]pyridazin-1-one] gave an IC50 of less than 100 nM. With `COc1cc(OC)cc(-c2nn(-c3ccccc3Cl)c(=O)c3c2CCC3)c1` [Example 86, 2-(2-chloro-phenyl)-4-(3,5-dimethoxy-phenyl)-2,5,6,7-tetrahydro-cyclopenta[d]pyridazin-1-one] the IC50 was 100 to 10000 nM. Work on `O=c1c2c(c(-c3cccs3)nn1-c1cc(N3CC[C@H](O)C3)ccc1C(F)(F)F)CCC2` [Example 1-17, 2-[5-((S)-3-hydroxy-pyrrolidin-1-yl)-2-trifluoromethylphenyl]-4-(thiophen-2-yl)-2,5,6,7-tetrahydro-cyclopenta[d]pyridazin-1-one] yielded an IC50 of less than 100 nM. For `COc1cc(OC)cc(-c2nn(-c3cc(N4CC[C@H](O)C4)ccc3C(F)(F)F)c(=O)c3c2CCN3CC(=O)NCCCCCCNC(C)=O)c1` [Example 40, N-(6-acetylamino-hexyl)-2-{4-(3,5-dimethoxy-phenyl)-6-[5-((S)-3-hydroxy-pyrrolidin-1-yl)-2-trifluoromethyl-phenyl]-7-oxo-2,3,6,7-tetrahydro-pyrrolo[2,3-d]pyridazin-1-yl}-acetamide], the IC50 was less than 100 nM. In the case of `O=c1c2c(c(-c3ccsc3)nn1-c1cc(N3CC[C@H](O)C3)ccc1C(F)(F)F)CCC2` [Example 158, 2-[5-((S)-3-hydroxy-pyrrolidin-1-yl)-2-trifluoromethyl-phenyl]-4-thiophen-3-yl-2,5,6,7-tetrahydro-cyclopenta[d]pyridazin-1-one], the IC50 is reported as 100 to 10000 nM. With `CCCCCCNC(=O)CN1CCc2c(-c3cc(OC)cc(OC)c3)nn(-c3cc(N4CC[C@H](O)C4)ccc3C(F)(F)F)c(=O)c21` [Example 35, 2-{4-(3,5-dimethoxy-phenyl)-6-[5-((S)-3-hydroxy-pyrrolidin-1-yl)-2-trifluoromethyl-phenyl]-7-oxo-2,3,6,7-tetrahydro-pyrrolo[2,3-d]pyridazin-1-yl}-N-hexyl-acetamide] the IC50 was less than 100 nM. `COc1cc(OC)cc(-c2nn(-c3cc(N4CCCC4)ccc3C(F)(F)F)c(=O)c3c2CCN3)c1` [Example 37, 4-(3,5-dimethoxy-phenyl)-6-(5-pyrrolidin-1-yl-2-trifluoromethyl-phenyl)-1,2,3,6-tetrahydro-pyrrolo[2,3-d]pyridazin-7-one] showed an IC50 of less than 100 nM. Molecule `COc1cc(OC)cc(-c2nn(-c3cc(N4CCC4)ccc3C(F)(F)F)c(=O)c3c2CCC3)c1` [Example 71, 2-(5-azetidin-1-yl-2-trifluoromethyl-phenyl)-4-(3,5-dimethoxy-phenyl)-2,5,6,7-tetrahydro-cyclopenta[d]pyridazin-1-one] has an IC50 of less than 100 nM. `O=c1c2c(c(-c3ccc(F)cc3)nn1-c1cc(N3CC[C@H](O)C3)ccc1C(F)(F)F)CCC2` [Example 76, 4-(4-fluoro-phenyl)-2-[5-((S)-3-hydroxy-pyrrolidin-1-yl)-2-trifluoromethyl-phenyl]-2,5,6,7-tetrahydro-cyclopenta[d]pyridazin-1-one] was tested, and the IC50 was less than 100 nM.
